Legend:
Assay type in all cases: in vivo
mice [1] = assay: General behaviour of mice; conditions: 100 mg/kg i.p. and, resp., 200 mg/kg p.o., SMA = spontaneous motor activity
Protocol: These compounds decrease the spontaneous motor activity and potentiate the effect of narcotics.
(§1) The tests were performed on mice. In the examination of the general behaviour the animals were treated intraperitoneally with 100 mg/kg or orally with 200 mg/kg of the compound in question. The fighting behaviour test was performed according to the method of Tedeschi et al. (J. Pharm. Exp. Ther. 25, 28 /1959/). The observations concerning the general behaviour of the animals and the ED50 values obtained in the fighting behaviour test are summarized in Table 1. In these tests 1-(3,4-dimethoxyphenyl)-4-methyl-5-ethyl-7,8-dimethoxy-5H-2,3-benzodiazepine (Grandaxin) was applied as reference substance.

mice [2] = assay: Fighting behaviour test on mice (method of Tedeschi et al.); conditions: for ED50: Mus musculus, po, mice; for "Fighting behaviour" test on mice, relative activity: relative to Grandaxin (1.0), from ED50 p.o.
Protocol: as §1

mice [3] = assay: Narcosis potentiating activity on mice (sodium hexobarbital narcosis); conditions: for Narcosis potentiating activity on mice, Relative activity: relative to Grandaxin (1.0); for change in vivo at 25 mg/kg / change in vivo at 50 mg/kg / change in vivo at 12.5 mg/kg / change in vivo at 100 mg/kg: Mus musculus, po, 30 minutes before 50 mg/kg sodium hexobarbital i.v., prolongation vs control, read-out: Narcosis potentiating activity on mice, Increase, %
Protocol: When studying the narcosis potentiating effect, the benzodiazepine compounds were administered to mice in oral dosages of 12.5, 25, 50 or 100 mg/kg, and 30 minutes later 50 mg/kg of sodium hexobarbital were injected intravenously into the animals. The percentage prolongation of the narcosis period, compared to the value observed in the control group treated with sodium hexobarbital alone, was calculated. In these tests Grandaxin was applied again as reference substance.

| Compound | General behaviour (mice [1]) | ED50 (mice [2]) [mg/kg] | "Fighting behaviour" test on mice, relative activity (mice [2]) | Narcosis potentiating activity on mice, Relative activity (mice [3]; 25 mg/kg p.o.) | Narcosis potentiating activity on mice, Relative activity (mice [3]; 50 mg/kg p.o.) | change in vivo at 25 mg/kg (mice [3]; 25 mg/kg p.o.) [%] | change in vivo at 50 mg/kg (mice [3]; 50 mg/kg p.o.) [%] | Narcosis potentiating activity on mice, Relative activity (mice [3]; 12.5 mg/kg p.o.) | Narcosis potentiating activity on mice, Relative activity (mice [3]; 100 mg/kg p.o.) | change in vivo at 12.5 mg/kg (mice [3]; 12.5 mg/kg p.o.) [%] | change in vivo at 100 mg/kg (mice [3]; 100 mg/kg p.o.) [%] |
| --- | --- | --- | --- | --- | --- | --- | --- | --- | --- | --- | --- |
| CCCOc1cc2c(cc1OC)C(c1ccc(OC)c(OC)c1)=NN=C(C)C2CC (stereo not shown) [Example 37, 1-(3,4-dimethoxyphenyl)-4-methyl-5-ethyl-7-n-propoxy-8-methoxy-5H-2,3-benzodiazepine] | Strong decrease of SMA | 40 | 1.6 | – | – | – | – | – | – | – | – |
| CCCC1C(C)=NN=C(c2ccc(OC)c(OC)c2)c2cc(OC)c(OC)cc21.O (stereo not shown) [Example 10, 1-(3,4-dimethoxyphenyl)-4-methyl-5-n-propyl-7,8-dimethoxy-5H-2,3-benzodiazepine hydrate] | – | – | – | 1.23 | 1.62 | 100 | 185 | – | – | – | – |
| CCC1C(C)=NN=C(c2ccc(OC)c(OC)c2)c2cc(OC)c(OC)cc21 (stereo not shown) [Grandaxin, 1-(3,4-dimethoxyphenyl)-4-methyl-5-ethyl-7,8-dimethoxy-5H-2,3-benzodiazepine, reference compound] | Decrease of SMA | 64 | 1.0 | 1.0 | 1.0 | 81 | 114 | 1.0 | 1.0 | 17 | 239 |
| COc1cccc(C2=NN=C(C)Cc3cc(OC)c(OC)cc32)c1 [Example 46, 1-(3-Methoxyphenyl)-4-methyl-7,8-dimethoxy-5H-2,3-benzodiazepine] | Strong decrease of SMA | 50 | 1.3 | 3.70 | – | 300 | – | 8.24 | – | 140 | – |
| CCC1C(C)=NN=C(c2ccccc2F)c2cc(OC)c(OC)cc21 (stereo not shown) [Example 14, 1-(2-fluorophenyl)-4-methyl-5-ethyl-7,8 dimethoxy-5H-2,3-benzodiazepine] | – | – | – | 3.16 | 6.57 | 256 | 750 | 8.65 | – | 147 | – |
| CCC(C)Oc1cc2c(cc1OC)C(c1ccc(OC)c(OC)c1)=NN=C(C)C2CC (stereo not shown) [Example 35, 1-(3,4-dimethoxyphenyl)-4-methyl-5-ethyl-7-sec.butoxy-8-methoxy-5H-2,3-benzodiazepine] | Decrease of SMA | 60 | 1.1 | 1.11 | 1.52 | 90 | 173 | – | 3.26 | – | 780 |
| COc1cc2c(cc1OC)C(c1cccc(C(F)(F)F)c1)=NN=C(C)C2 [Example 44, 1-(3-Trifluoromethyl-phenyl)-4-methyl-7,8-dimethoxy-5H-2,3-benzodiazepine] | Strong decrease of SMA | 22 | 2.9 | 3.63 | – | 294 | – | 8.82 | – | 150 | – |
| COc1cc2c(cc1OC)C(c1cccc(Cl)c1)=NN=C(C)C2 [Example 39, 1-(3-Chlorophenyl)-4-methyl-7,8-dimethoxy-5H-2,3-benzodiazepine] | Strong decrease of SMA | 16 | 4.0 | 4.25 | – | 344 | – | 7.94 | – | 135 | – |
| CCC1C(C)=NN=C(c2ccc(OC)cc2)c2cc(OC)c(OC)cc21 (stereo not shown) [Example 4, 1-(4-methoxyphenyl)-4-methyl-5-ethyl-7,8-dimethoxy-5H-2,3-benzodiazepine] | Decrease of SMA | 40 | 1.6 | – | 2.17 | – | 248 | – | – | – | – |
| COc1cc2c(cc1OC)C(c1ccco1)=NN=C(C)C2 [Example 45, 1-(2-Furyl)-4-methyl-7,8-dimethoxy-5H-2,3-benzodiazepine] | Decrease of SMA | 50 | 1.3 | 3.09 | – | 250 | – | – | – | – | – |
